Data from EP4818312A2.

Details: from C=C[C@@H]1OC(c2ccc(OC)cc2)O[C@]1(C)CC[C@H](CC(=O)O[C@H](/C(C)=C/I)[C@@H](C)C=C)O[Si](C)(C)C(C)(C)C; rcm bond; Hoveyda-Grubbs 2nd generation; toluene; 6.52 mM; 110.0 °C; 5.0 h

## COc1ccc(C2O[C@H]3C=C[C@H](C)[C@@H](/C(C)=C/I)OC(=O)C[C@H](O[Si](C)(C)C(C)(C)C)CC[C@@]3(C)O2)cc1 (stereo partly shown)
  ring closure, yield of all isomers: 50%
